{
  "source": "patent US7008786B2",
  "about": "“Microorganism producing L-lysine and processes for producing L-lysine using the same” (priority 2000, dated 2006)",
  "key": {"[1]": {"test_system": "Corynebacterium glutamicum CJM107", "assay": "Resistance to monensin: growth on minimal agar plate medium containing monensin", "assay_type": "cell-based", "conditions": "Monensin 7,000 μg/l, 4 days, mutant strain CJM107", "method": "(§1) The parent CH77 strain and the mutant CJM107 strain were tested for their resistance to monensin by the following method. Cells were grown in a Luria-Bertani (LB) liquid medium for 16 hours. Then, the cells were washed twice with a sterilized physiological saline and then, appropriately diluted and cultivated on a minimal agar plate medium [glucose 10 g, (NH4)2SO4 2 g, urea 2 g, KH2PO4 1 g, K2HPO4 3 g, MgSO4.7H2O 0.5 g, FeSO4.7H2O 10 mg, MnSO4.7H2O 10 mg, biotin 100 μg, Thiamin.HCl 100 μg, CaCl2.2H2O 100 μg, Na2B4O7.10H2O 80 μg, (NH4)6MoO27.4H2O 40 μg, ZnSO4.7H2O 10 μg, CuSO4.7H2O 10 μg, MnCl2.4H2O 10 μg, FeCl3.6H2O 1 mg, agar 20 g, if necessary L-leucine 0.1 g, if necessary L-threonine 0.1 g, if necessary L-methionine 0.1 g, per distilled water of 11 (pH 7.0)] containing monensin of 7,000 μg/1 for 4 days."}, "[2]": {"test_system": "Corynebacterium glutamicum CH77", "assay": "Resistance to monensin: growth on minimal agar plate medium containing monensin", "assay_type": "cell-based", "conditions": "Monensin 7,000 μg/l, 4 days, parent strain CH77", "method": "as §1"}},
  "data": [
    {"compound": "CC[C@@]1([C@@H]2O[C@@H]([C@H]3O[C@@](O)(CO)[C@H](C)C[C@@H]3C)C[C@@H]2C)CC[C@H]([C@]2(C)CC[C@]3(C[C@H](O)[C@@H](C)[C@@H]([C@@H](C)[C@@H](OC)[C@H](C)C(=O)O)O3)O2)O1", "note": "[Monensin, monensin]", "values": [
      {"measurement": "Growth of CJM107 in the presence of monensin", "setting": "[1]", "result": "+++"},
      {"measurement": "Growth of CH77 in the presence of monensin", "setting": "[2]", "result": "−"}
    ]}
  ]
}
